# Laboratory results reported in patent US8293764B2, “Compositions and methods for disruption of BRCA2-Rad51 interaction” (The Regents of the University of California, priority 2004, dated 2012).
# Test system: non-small-cell lung carcinoma (CALU-1, A427, Sklu-1, CALU-6), osteosarcoma (SaoS2, U2OS) and glioblastoma (T98G) cell lines
# Experiment: Proliferation of other cancer cell lines
# Format: cell-based
# Conditions: CALU-1, A427, Sklu-1, CALU-6, SaoS2, U2OS
smiles,measurement,value
"O=S(=O)(Cc1ccccc1)N1C=Cc2ccccc2C1c1c[nH]c2ccccc12 (stereo not shown) [IBR2, 2-(benzylsulfonyl)-1-(1H-indol-3-yl)-1,2-dihydroisoquinoline]",proliferation,significantly inhibited
